From publication PMC1084349 (BMC Neuroscience, 2005)
Where a SMILES comes first, the peptide text is derived from it.

Molecular target: T1, hTAS1R2-hTAS1R3 (Homo sapiens, UniProt Q7RTX0+Q8TE23)
T1 sequence (Q8TE23 20-839): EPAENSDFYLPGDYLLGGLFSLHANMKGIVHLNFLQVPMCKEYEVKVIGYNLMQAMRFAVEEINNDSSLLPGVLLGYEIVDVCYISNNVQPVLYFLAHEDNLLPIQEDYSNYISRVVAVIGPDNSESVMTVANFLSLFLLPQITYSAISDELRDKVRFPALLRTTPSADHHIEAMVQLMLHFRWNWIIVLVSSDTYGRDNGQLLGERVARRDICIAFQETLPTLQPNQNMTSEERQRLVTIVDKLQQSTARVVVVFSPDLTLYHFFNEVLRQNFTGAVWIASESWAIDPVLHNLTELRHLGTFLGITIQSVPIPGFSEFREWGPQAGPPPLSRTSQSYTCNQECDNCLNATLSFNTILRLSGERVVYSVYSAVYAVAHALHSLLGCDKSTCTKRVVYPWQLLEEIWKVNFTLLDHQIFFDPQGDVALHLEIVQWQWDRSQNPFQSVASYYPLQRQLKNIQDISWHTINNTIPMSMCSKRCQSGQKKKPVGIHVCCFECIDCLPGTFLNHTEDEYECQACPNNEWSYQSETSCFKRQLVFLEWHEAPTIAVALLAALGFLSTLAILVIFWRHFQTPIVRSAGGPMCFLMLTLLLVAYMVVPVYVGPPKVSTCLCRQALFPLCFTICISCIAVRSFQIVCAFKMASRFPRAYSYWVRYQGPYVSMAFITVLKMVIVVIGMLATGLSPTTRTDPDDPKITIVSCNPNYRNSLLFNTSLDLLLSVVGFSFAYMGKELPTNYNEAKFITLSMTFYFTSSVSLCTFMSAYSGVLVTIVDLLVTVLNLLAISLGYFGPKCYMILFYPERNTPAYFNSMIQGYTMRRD
T1 sequence (Q7RTX0 21-852): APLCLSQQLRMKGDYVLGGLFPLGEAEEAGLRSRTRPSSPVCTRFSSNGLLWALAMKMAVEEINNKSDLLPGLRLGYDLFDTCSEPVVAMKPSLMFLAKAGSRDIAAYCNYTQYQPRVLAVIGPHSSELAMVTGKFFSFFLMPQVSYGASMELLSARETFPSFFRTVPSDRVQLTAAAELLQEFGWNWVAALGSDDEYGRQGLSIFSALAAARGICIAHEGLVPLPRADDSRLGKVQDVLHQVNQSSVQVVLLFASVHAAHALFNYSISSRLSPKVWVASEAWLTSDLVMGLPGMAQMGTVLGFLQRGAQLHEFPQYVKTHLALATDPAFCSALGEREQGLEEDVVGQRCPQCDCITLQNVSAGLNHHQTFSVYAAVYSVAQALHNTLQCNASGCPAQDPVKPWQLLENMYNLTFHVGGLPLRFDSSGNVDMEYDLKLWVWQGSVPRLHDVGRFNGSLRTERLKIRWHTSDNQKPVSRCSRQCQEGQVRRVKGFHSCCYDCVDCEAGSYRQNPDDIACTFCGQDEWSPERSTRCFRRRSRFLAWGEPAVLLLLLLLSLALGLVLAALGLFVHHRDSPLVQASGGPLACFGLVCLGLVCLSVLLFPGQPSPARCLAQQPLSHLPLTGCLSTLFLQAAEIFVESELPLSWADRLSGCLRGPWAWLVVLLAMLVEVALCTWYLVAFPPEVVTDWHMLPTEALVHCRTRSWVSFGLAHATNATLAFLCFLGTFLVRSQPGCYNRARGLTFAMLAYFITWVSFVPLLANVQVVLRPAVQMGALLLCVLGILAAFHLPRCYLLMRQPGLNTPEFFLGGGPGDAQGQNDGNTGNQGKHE
Test: Calcium mobilization (FLIPR) in transfected HEK293T-Gα16gust44 cells, human sweet receptor
Settings: asp 15 mM; cyc 30 mM; neo 0.1 mM; sac 10 mM; suc 100 mM; stev 1 mM

| activation of receptor (calcium response) | Compound |
| --- | --- |
| activated the human receptor | C=C1C[C@@]23CC[C@H]4[C@@](C)(CCC[C@@]4(C)C(=O)O[C@@H]4O[C@H](CO)[C@@H](O)[C@H](O)[C@H]4O)[C@@H]2CC[C@]1(O[C@@H]1O[C@H](CO)[C@@H](O)[C@H](O)[C@H]1O[C@@H]1O[C@H](CO)[C@@H](O)[C@H](O)[C@H]1O)C3 [stevioside] |
| activated the human receptor | O=S(=O)(O)NC1CCCCC1 [cyclamate] |
| activated the human receptor | COc1ccc(CCC(=O)c2c(O)cc(O[C@@H]3O[C@H](CO)[C@@H](O)[C@H](O)[C@H]3O[C@@H]3O[C@@H](C)[C@H](O)[C@@H](O)[C@H]3O)cc2O)cc1O [neohesperidine dihydrochalcone] |
| activated the human receptor | COC(=O)[C@H](Cc1ccccc1)NC(=O)[C@@H](N)CC(=O)O [aspartame] (HELM PEPTIDE1{D.F.[CO[*:1]]}$$$$V2.0) |
| activated the human receptor | OC[C@H]1O[C@@](CO)(O[C@H]2O[C@H](CO)[C@@H](O)[C@H](O)[C@H]2O)[C@@H](O)[C@@H]1O [sucrose] |
